Measured values: patent US5801180A, “Quinazoline derivatives” (priority 1991, dated 1998)
Where a name gives a salt, the structure may show the parent alone.

Biological target: T1, cGMP-PDE prepared from the swine aeorta (Sus scrofa, UniProt A0A287B475)
T1 construct: The swine aeorta was sliced; from tissue; host or cells: swine aorta, 100000×g supernatant, DEAE-Toyopearl 650S fraction
Assay: Enzyme inhibiting action with the use of cGMP-PDE prepared from the swine aorta
Type: biochemical
Conditions: CaM-independent cGMP-PDE, 1 mM EGTA, 1 μM cGMP substrate, DMSO 4% or below
Protocol: Enzyme inhibiting action with the use of cGMP-PDE prepared from the swine aeorta
The enzymatic activity of the cGMP-PDE prepared from the swine aeorta was determined according to the method of Thompson et al. ^(1). The enzymatic activity thereof was determined in the presence of 1 mM EGTA by the use of 1 μM cGMP as a substrate. The compound of the present invention was dissolved in DMSO, added to the reaction liquid and examined for the inhibitory activity. The final concentration of DMSO in the reaction liquid was adjusted to 4% or below. (1) Thompson, W. J. and Strada, S. J., Cyclic Nucleotide Phosphodiesterase (PDE), in Methods of Enzymatic Analysis, vol 4, p.127-234, 1984.
The swine aeorta was sliced, followed by the addition of 10 times by volume as much Buffer A (20 mM Tris/HCl, 2 mM Mg acetate, 1 mM Dithiothreitol, 5 mM EDTA, 1400 TIU/liter aprotinin, 10 mg/liter leupeptin, 1 mM benzamidine, 0.2 mM PMSF, pH 7.5). The obtained mixture was homogenized and the homogenate was centrifuged at 100000×g for one hour. The obtained supernatant was supplied a DEAE-Toyopearl 650S (Tosoh, Tokyo, Japan) column. After the column was washed with Buffer B (50 mM Tris/HCl, 0.1 mM EGTA, 2 mM Mg acetate, 1 mM Dithiothreitol, 0.2 mM PMSF, pH 7.5), gradient elution with 0.05 to 0.4M NaCl was conducted. Thus, CaM-independent cGMP-PDE fractions were obtained.

Row | SMILES | IC50 [nM]
1 | CCOC(=O)CON=Cc1nc(NCc2ccc3c(c2)OCO3)c2cc(Cl)ccc2n1 [Example 150, 2-Ethoxycarbonylmethoxyiminomethyl-4-(3,4-methylenedioxybenzyl)amino-6-chloroquinazoline] | 7.2
2 | Nc1cc(CNc2ncnc3ccc(Cl)cc23)ccc1Cl [Example 151, 4-(3-Amino-4-chlorobenzyl)amino-6-chloroquinazoline] | 81
3 | O=CNc1cc(CNc2ncnc3ccc(Cl)cc23)ccc1Cl [Example 152, 4-(4-Chloro-3-formamidobenzyl)amino-6-chloroquinazoline] | 110
4 | COCCOc1nc(NCc2ccc3c(c2)OCO3)c2cc(Cl)ccc2n1 [Example 164, 2-(2-Methoxyethoxy)-4-(3,4-methylenedioxybenzyl)amino-6-chloroquinazoline] | 8
5 | COc1nc(NCc2ccc3c(c2)OCO3)c2cc(Cl)ccc2n1 [Example 165, 2-Methoxy-4-(3,4-methylenediokybenzyl)amino-6-chloroquinazoline] | 16
6 | COc1nc(NCc2ccc3c(c2)OCO3)c2cc(C#N)ccc2n1 [Example 166, 2-Methoxy-4-(3,4-methylenedioxybenzyl)amino-6-cyanoquinazoline] | 26
7 | COc1nc(NCc2ccc3c(c2)OCO3)c2cc(OC)c(OC)c(OC)c2n1 [Example 167, 2,7,8-Tetramethoxy-4-(3,4-methylenedioxybenzyl)aminoquinazoline] | 560
8 | OCCOc1nc(NCc2ccc3c(c2)OCO3)c2cc(Cl)ccc2n1 [Example 168] | 11
9 | N#Cc1ccc2nc(OCCO)nc(NCc3ccc4c(c3)OCO4)c2c1 [Example 169, 2-(2-Hydroxyethoxy)-4-(3,4-methylenedioxybenzyl)amino-6-cyanoquinazoline] | 11
10 | COCCOc1nc(NCc2ccc3c(c2)OCO3)c2cc(OC)ccc2n1 [Example 170, 2-(2-Methoxyethoxy)-4-(3,4-methylenedioxybenzyl)amino-6-methoxyquinazoline] | 29
11 | COCCOc1nc(NCc2ccc3nc[nH]c3c2)c2cc(C#N)ccc2n1 [Example 171, 2-(2-Methoxyethoxy)-4-(benzimidazol-5-yl)methylamino-6-cyanoquinazoline] | 0.4
12 | CCCOc1nc(NCc2ccc3c(c2)OCO3)c2cc(OC)c(OC)c(OC)c2n1 [Example 172, 2-Propoxy-4-(3,4-methylenedioxybenzyl)amino-6,7,8-trimethoxyquinazoline] | 95
13 | OCCCCOc1nc(NCc2ccc3c(c2)OCO3)c2cc(Cl)ccc2n1 [Example 174, 2-(4-Hydroxybutoxy)-4-(3,4-methylenedioxybenzyl)amino-6-chloroquinazoline] | 4
14 | COCCCCOc1nc(NCc2ccc3c(c2)OCO3)c2cc(Cl)ccc2n1 [Example 175, 2-(4-Methoxybutoxy)-4-(3,4-methylenedioxybenzyl)amino-6-chloroquinazoline] | 6
15 | OCCCCCCOc1nc(NCc2ccc3c(c2)OCO3)c2cc(Cl)ccc2n1 [Example 176] | 3
16 | Oc1nc(NCc2ccc3c(c2)OCO3)c2cc(Cl)ccc2n1 [Example 177, 2-Hydroxy-4-(3,4-methylenedioxybenzyl)amino-6-chloroquinazoline] | 12
17 | OCC(O)COc1nc(NCc2ccc3c(c2)OCO3)c2cc(Cl)ccc2n1 (centres unmarked) [Example 178, 2-(2,3-Dihydroxypropyl)oxy-4-(3,4-methylenedioxybenzyl)amino-6-chloroquinazoline] | 11
18 | N#Cc1ccc2nc(OCCCC(=O)O)nc(NCc3ccc4c(c3)OCO4)c2c1 [Example 179, 2-(3-Carboxypropyl)oxy-4-(3,4-methylenedioxybenzyl)amino-6-cyanoquinazoline] | 2
19 | CSc1nc(NCc2ccc3c(c2)OCO3)c2cc(Cl)ccc2n1 [Example 180, 2-Methylthio-4-(3,4-methylenedioxybenzyl)amino-6-chloroquinazoline] | 9
20 | N#Cc1ccc2nc(N3CCOCC3)nc(NCc3ccc4c(c3)OCO4)c2c1 [Example 181, 2-Morpholino-4-(3,4-methylenedioxybenzyl)amino-6-cyanoquinazoline] | 5
21 | Clc1ccc2nc(N3CCOCC3)nc(NCc3ccc4c(c3)OCO4)c2c1 [Example 182, 2-Morpholino-4-(3,4-methylenedioxybenzyl)amino-6-chloroquinazoline] | 8

Row | SMILES | IC50 [nM]
22 | COc1ccc(CNc2nc(N3CCOCC3)nc3ccc(C#N)cc23)cc1Cl [Example 183, 2-Morpholino-4-(3-chloro-4-methoxybenzyl)amino-6-cyanoquinazoline] | 0.4
23 | N#Cc1ccc2nc(N3CCC(O)CC3)nc(NCc3ccc4c(c3)OCO4)c2c1 [Example 184, 2-(4-Hydroxypiperidino)-4-(3,4-methylenedioxybenzyl)amino-6-cyanoquinazoline] | 6
24 | OC1CCN(c2nc(NCc3ccc4c(c3)OCO4)c3cc(Cl)ccc3n2)CC1 [Example 185, 2-(4-Hydroxypiperidino)-4-(3,4-methylenedioxybenzyl)amino-6-chloroquinazoline] | 10
25 | COc1cc2c(NCc3ccc4c(c3)OCO4)nc(NCCO)nc2c(OC)c1OC [Example 187, 2-(2-Hydroxyethyl)amino-4-(3,4-methylenedioxybenzyl)amino-6,7,8-trimethoxyquinazoline] | 120
26 | OCCNc1nc(NCc2ccc3c(c2)OCO3)c2cc(Cl)ccc2n1 [Example 188, 2-(2-Hydroxyethyl)amino-4-(3,4-methylenedioxybenzyl)amino-6-chloroquinazoline] | 29
27 | CN(CCO)c1nc(NCc2ccc3c(c2)OCO3)c2cc(Cl)ccc2n1 [Example 189, 2-[N-(2-Hydroxyethyl)-N-methylamino]-4-(3,4-methylenedioxybenzyl)amino-6-chloroquinazoline] | 16
28 | OCC1CCCN1c1nc(NCc2ccc3c(c2)OCO3)c2cc(Cl)ccc2n1 (centres unmarked) [Example 190, 2-(9-Hydroxymethylpyrrolidin-1-yl)-4-(3,4-methylenedioxyybenzyl)amino-6-chloroquinazoline] | 5
29 | OCCN(CCO)c1nc(NCc2ccc3c(c2)OCO3)c2cc(Cl)ccc2n1 [Example 191, 2-Bis(2-hydroxyethyl)amino-4-(3,4-methylenedioxybenzyl)amino-6-chloroquinazoline] | 19
30 | Clc1ccc2nc(-n3ccnc3)nc(NCc3ccc4c(c3)OCO4)c2c1 [Example 192, 2-(1-Imidazolyl)-4-(3,4-methylenedioxybenzyl)amino-6-chloroquinazoline] | 20
31 | N#Cc1ccc2nc(-n3ccnc3)nc(NCc3ccc4c(c3)OCO4)c2c1 [Example 193, 2-(Imidazol-1-yl)-4-(3,4-methylenedioxybenzyl)amino-6-cyanoquinazoline] | 0.8
32 | CCCCCNc1nc(NCc2ccc3c(c2)OCO3)c2cc(Cl)ccc2n1 [Example 194, 2-Pentylamino-4-(3,4-methylenedioxybenzyl)amino-6-chloroquinazoline] | 4
33 | NC(=O)CNc1nc(NCc2ccc3c(c2)OCO3)c2cc(Cl)ccc2n1 [Example 197] | 66
34 | Nc1nc(NCc2ccc3c(c2)OCO3)c2cc(Cl)ccc2n1 [Example 200, 2-Amino-4-(3,4-methylenedioxybenzyl)amino-6-chloroquinazoline] | 64
35 | N#Cc1ccc2nc(N)nc(NCc3ccc4c(c3)OCO4)c2c1 [Example 201, 2-Amino-4-(3,4-methylenedioxybenzyl)amino-6-cyanoquinazoline] | 49
36 | CNC(=O)Nc1nc(NCc2ccc3c(c2)OCO3)c2cc(Cl)ccc2n1 [Example 202, 2-(Methylcarbamoyl)amino-4-(3,4-methylenedioxybenzyl)amino-6-chloroquinazoline] | 2
37 | CNC(=O)N(C(=O)NC)c1nc(NCc2ccc3c(c2)OCO3)c2cc(Cl)ccc2n1 [Example 203, 2-Bis(methylcarbamoyl)amino-4-(3,4-methylenedioxybenzyl)amino-6-chloroquinazoline] | 28
38 | CCCCNC(=O)Nc1nc(NCc2ccc3c(c2)OCO3)c2cc(Cl)ccc2n1 [Example 204, 2-(n-Butylcarbamoyl)amino-4-(3,4-methylenedioxybenzyl)amino-6-chloroquinazoline] | 4
39 | CCOC(=O)C1CCN(c2nc(NCc3ccc4c(c3)OCO4)c3cc(Cl)ccc3n2)CC1 [Example 206, 2-(4-Ethoxycarbonylpiperidino)-4-(3,4-methylenedioxybenzyl)amino-6-chloroquinazoline hydrochloride] | 29
40 | CCOC(=O)C1CCN(c2nc(NCc3ccc(OC)c(Cl)c3)c3cc(C#N)ccc3n2)CC1 [Example 208, 2-(4-Ethoxycarbonylpiperidino)-4-(3-chloro-4-methoxybenzyl)amino-6-cyanoquinazoline] | 0.19
41 | CCOC(=O)CNc1nc(NCc2ccc3c(c2)OCO3)c2cc(Cl)ccc2n1 [Example 213, 2-(Ethoxycarbonylmethyl)amino-4-(3,4-methylenendioxybenzyl)amino-6-chloroquinazoline] | 23
